Patent publication US20060246492A1, “Method for predicting responsiveness to drugs” (The General Hospital Corporation, priority 2005, published 2006)
“Also recorded” adds a separate entry of the source.

Columns and labels:
MET = MET (Homo sapiens, UniProt P08581); details: nanomolar concentrations; cited from earlier work
NIH3T3 fibroblasts = details: cited from earlier work
[1] = test system: GTL-16 gastric carcinoma cells; details: cited from earlier work
MLP-29 cells = details: cited from earlier work
MKN45 [2] = assay: Drug-sensitivity screen of 40 human cancer cell lines (DNA staining, 3 days); format: cell-based; details: MKN45 gastric cancer cell line
Protocol: (§1) Cells were cultured and analyzed in triplicate within microtiter plates. Cell numbers were quantitated by DNA staining, 3 days after addition of various concentrations of drugs and expressed as a fraction of matched untreated cultures. For each drug concentration, cell lines with relative drug sensitivity (<50% of untreated control growth) are shown in darkest staining, intermediate sensitivity (50-75%) in […], and drug insensitivity (>75%) in intermediate shading.
(§2) Cellular Proliferation and Viability Assays. […] For quantitation of cellular proliferation, cells were fixed at appropriate time points in 4% paraformaldehyde, and all plates were stained simultaneously by using the fluorescent nucleic acid stain SYTO60 (Molecular Probes) at 1:8,000 dilution in PBS. Quantitation was done by measuring the […] at 700 nm by using the Odyssey Imaging System (LI-COR, Lincoln, Nebr.). The relative cell number was obtained by normalizing treated samples to matched untreated specimens. For quantitation of cell viability, cultures were stained after 4 days by using the MTT assay. Briefly, 10 μl of 5 mg/ml MTT (Thiazolyl blue) solution was added to each well and incubated for 2 h at 37° C. For adherent cell lines, the media was removed from each well, and the resultant MTT formazan was solubilized in 100 μl of DMSO. For nonadherent cell lines, the MTT formazan was solubilized by direct addition of 100 μl of acidic isopropanol (0.1 N HCl) to each well. The results were quantitated spectrophotometrically by using a test wavelength of 570 nm and a reference wavelength of 630 nm.

Amp− cells [3] = assay: Growth curve (SYTO60 staining); format: cell-based, human; details: 1 μM, up to 6 days
SNU-1 = assay: MTT viability assay, gastric cancer cell line; format: cell-based; details: Homo sapiens, SNU1, 96 h
Protocol: (§3) Cells were plated in 96-well plate in medium containing 4% fetal bovine serum at approximately 4000 cells/well. […] Cell viability was measured 96 h later using the MTT assay. Briefly, 10 ul of 5 mg/ml MTT (Thiazolyl blue) solution was added to each well and incubated for about 2 hours at 37° C. For adherent cell lines, the media was removed from each well and the resultant MTT formazan was solubilized in 100 ul of DMSO. For suspension cell lines, the MMT formazan was solubilized by direct addition of 100 ul of acidic isopropanol (0.1N HCl) to each well. The results were quantitated spectrophotometrically using a test wavelength of 570 nm and a reference wavelength of 630 nm.
as §2

MKN45 [4] = assay: MTT viability assay, gastric cancer cell line; format: cell-based; details: Homo sapiens, MKN-45, 96 h
Protocol: as §3, §2

GTL16 = assay: MTT viability assay, gastric cancer cell line; format: cell-based; details: Homo sapiens, GTL 16, 96 h
Protocol: as §3, §2

SNU-5 = assay: MTT viability assay, gastric cancer cell line; format: cell-based; details: Homo sapiens, SNU-5, 96 h
Protocol: as §3, §2

AGS = assay: MTT viability assay, gastric cancer cell line; format: cell-based; details: Homo sapiens, 96 h
Protocol: as §3, §2

N87 = assay: MTT viability assay, gastric cancer cell line; format: cell-based; details: Homo sapiens, 96 h
Protocol: as §3, §2

KATO II = assay: MTT viability assay, gastric cancer cell line; format: cell-based; details: Homo sapiens, 96 h
Protocol: as §3, §2

Hs746T = assay: MTT viability assay, gastric cancer cell line; format: cell-based; details: Homo sapiens, 96 h
Protocol: as §3, §2

MKN7 = assay: MTT viability assay, gastric cancer cell line; format: cell-based; details: Homo sapiens, MKN-7, 96 h
Protocol: as §3, §2

MKN1 = assay: MTT viability assay, gastric cancer cell line; format: cell-based; details: Homo sapiens, MKN-1, 96 h
Protocol: as §3, §2

MKN74 = assay: MTT viability assay, gastric cancer cell line; format: cell-based; details: Homo sapiens, MKN-74, 96 h
Protocol: as §3, §2

TMK-1 = assay: MTT viability assay, gastric cancer cell line; format: cell-based; details: Homo sapiens, TMK-1, 96 h
Protocol: as §3, §2

Hs738T = assay: MTT viability assay, gastric cancer cell line; format: cell-based; details: Homo sapiens, 96 h
Protocol: as §3, §2

HSC39 = assay: MTT viability assay, gastric cancer cell line; format: cell-based; details: Homo sapiens, 96 h
Protocol: as §3, §2

MKN28 = assay: MTT viability assay, gastric cancer cell line; format: cell-based; details: Homo sapiens, MKN-28, 96 h
Protocol: as §3, §2

SNU-16 = assay: MTT viability assay, gastric cancer cell line; format: cell-based; details: Homo sapiens, SNU-16, 96 h
Protocol: as §3, §2

KATO III = assay: MTT viability assay, gastric cancer cell line; format: cell-based; details: Homo sapiens, 96 h
Protocol: as §3, §2

[5] = test system: ERK1/2, AKT, STAT3, or FAK in Amp− cells; assay: Immunoblotting of downstream effector phosphorylation; format: cell-based, human; details: 3 h
Protocol: (§4) FIG. 3: Constitutive activation of MET and activation of downstream signaling pathways in Amp^+ cells. (FIG. 3A) MET is constitutively activated in the Amp^+ cells. […] (FIG. 3B) Effect of HGF on MET activation in Amp^+ and Amp^− cells (representative immunoblots). Cells were serum-starved for 24 h and treated with 40 ng/ml HGF for 10 minutes. Phosphorylation of MET (Y1234/1235) is unaltered in Amp^+ cells treated with HGF, but it is induced by HGF in Amp^− cells (total MET control).
(§5) Cells are costained with DAPI to show nuclei.
(§6) Cells were either directly lysated in 2× sample buffer or in RIPA buffer (150 mM NaCl, 50 mM Tris pH 8.0, 1% NP40, 0.5% DOC, 0.1% SDS, 1 mM EDTA, 10 mM NaF, 1 mM Na-orthovanadate, 1× protease inhibitor cocktail (Roche; Indianapolis, Ind.)). Cell lysates were sonicated for 10 sec and cleared by centrifugation at 14,000 rpm for 10 min at 4° C. Cleared lysates were boiled in sample buffer and loaded onto 10% SDS-PAGE gel. For immunoblotting analysis, proteins were transferred onto Immobilon PVDF membrane (Millipore; Bedford, Mass.) and visualized with Western Lightning Plus chemiluminescence kit (Perkin Elmer; Boston, Mass.).

[6] = test system: ERK1/2, AKT, STAT3, and FAK in Amp+ cells; assay: as above; format: cell-based, human; details: 3 h, 50 nM
Protocol: as §4, §5, §6

Amp− cells [7] = assay: Viability of gastric cancer cell lines without MET amplification (MTT); format: cell-based, human; details: 12 of 12 Amp− gastric cancer cell lines; 96 h
Amp+ cells [8] = assay: Growth curve (SYTO60 staining); format: cell-based, human; details: 1 μM, up to 6 days
Amp− cells [9] = assay: Apoptosis induction assay (cleaved caspase-3, PARP cleavage); format: cell-based, human; details: 72 h, identical conditions
Protocol: as §5
(§7) Cells were plated on coverslips in 12-well dishes and grown to approximately 75% confluency in 10% serum. […] After 72 h the cells were fixed with 4% paraformaldehyde for 20 minutes. Permeabilization with 1% NP40 for 5 minutes was followed by blocking with 3% BSA for 30 minutes. The coverslips were then incubated overnight at 4° C. with cleaved caspase-3 antibody at 1:200 dilution. The next day, the coverslips were washed 3 times with PBS and incubated with a secondary antibody (goat anti-rabbit FITC-conjugated) for 1 h at 1:250 dilution. Following 5 washes with PBS, coverslips were mounted in Vectashield mounting medium containing DAPI (Vector Laboratories; Burlingame, Calif.).
(§8) Apoptosis Induction Assay. […] After 72 h, cells were fixed with 4% paraformaldehyde for 20 min, permeabilized by using 1% Nonidet P-40 for 5 min, and blocked with 3% BSA for 30 min. The coverslips were then incubated overnight at 4° C. with cleaved caspase-3 antibody at 1:200 dilution. The next day, the coverslips were washed three times with PBS and incubated with a secondary antibody (goat anti-rabbit FITC-conjugated) for 1 h at 1:250 dilution. After five washes with PBS, coverslips were mounted in Vectashield mounting medium containing DAPI (Vector Laboratories), and staining was visualized by fluorescent microscopy.

Amp+ cells [10] = assay: as above; format: cell-based, human; details: 72 h, 1 μM (caspase-3), 500 nM (PARP)
Protocol: as §5, §7, §8

[11] = test system: platelet-derived growth factor receptor; details: cited from earlier work
Amp+ cells [12] = assay: Viability of gastric cancer cell lines with MET amplification (MTT); format: cell-based, human; details: 5 of 5 Amp+ gastric cancer cell lines; 96 h
[13] = test system: MET autophosphorylation (Y1234/1235) in Amp+ cells; assay: Immunoblotting of MET autophosphorylation; format: cell-based, human; details: 3 h, 50 nM
NCI-H1650 = assay: Drug-sensitivity screen of 40 human cancer cell lines (DNA staining, 3 days); format: cell-based; details: NCI-H1650 (EGFR del E746-A750), tested 100 nM to 10 μM
Protocol: as §1, §2

NCI-H1975 = assay: as above; format: cell-based; details: NCI-H1975 (EGFR L858R and T790M)
Protocol: as §1, §2

MET, sequence (P08581 25-1390): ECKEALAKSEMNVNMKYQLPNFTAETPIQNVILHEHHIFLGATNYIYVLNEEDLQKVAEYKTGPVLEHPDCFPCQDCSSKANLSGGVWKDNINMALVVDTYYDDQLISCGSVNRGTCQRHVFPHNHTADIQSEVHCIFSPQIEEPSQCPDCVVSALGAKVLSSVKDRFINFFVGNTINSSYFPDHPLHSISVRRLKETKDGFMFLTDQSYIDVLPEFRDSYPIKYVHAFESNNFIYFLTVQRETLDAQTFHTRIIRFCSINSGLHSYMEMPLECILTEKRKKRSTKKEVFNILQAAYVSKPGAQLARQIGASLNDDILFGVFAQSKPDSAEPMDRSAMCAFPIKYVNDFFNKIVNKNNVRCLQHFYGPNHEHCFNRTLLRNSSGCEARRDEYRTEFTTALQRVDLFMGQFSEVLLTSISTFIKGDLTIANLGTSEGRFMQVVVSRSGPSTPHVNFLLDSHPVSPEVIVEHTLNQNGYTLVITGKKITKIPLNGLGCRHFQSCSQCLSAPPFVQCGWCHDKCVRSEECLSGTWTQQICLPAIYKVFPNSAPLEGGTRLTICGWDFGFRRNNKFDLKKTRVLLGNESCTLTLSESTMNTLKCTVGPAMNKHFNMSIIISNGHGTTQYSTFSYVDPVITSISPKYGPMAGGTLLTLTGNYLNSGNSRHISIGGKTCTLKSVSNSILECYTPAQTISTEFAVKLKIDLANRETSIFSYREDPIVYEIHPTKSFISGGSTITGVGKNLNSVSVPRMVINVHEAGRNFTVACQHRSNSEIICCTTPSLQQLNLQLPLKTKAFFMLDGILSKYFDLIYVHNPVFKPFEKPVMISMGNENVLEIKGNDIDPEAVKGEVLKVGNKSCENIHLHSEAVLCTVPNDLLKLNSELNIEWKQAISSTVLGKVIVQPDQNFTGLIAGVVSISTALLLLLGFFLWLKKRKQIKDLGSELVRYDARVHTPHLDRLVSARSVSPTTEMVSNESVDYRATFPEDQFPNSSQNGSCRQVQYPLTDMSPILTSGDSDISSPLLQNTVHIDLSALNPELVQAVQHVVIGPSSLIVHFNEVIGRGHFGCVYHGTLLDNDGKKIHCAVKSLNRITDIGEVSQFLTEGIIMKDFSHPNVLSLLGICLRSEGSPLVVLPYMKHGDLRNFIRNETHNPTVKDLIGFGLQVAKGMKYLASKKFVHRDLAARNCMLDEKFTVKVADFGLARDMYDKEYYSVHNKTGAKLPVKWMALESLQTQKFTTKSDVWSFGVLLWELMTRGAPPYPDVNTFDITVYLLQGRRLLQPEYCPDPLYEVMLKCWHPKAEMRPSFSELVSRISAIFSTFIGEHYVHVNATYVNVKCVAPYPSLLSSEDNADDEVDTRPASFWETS

In the case of COC(=O)[C@@]1(O)C[C@H]2O[C@]1(C)n1c3ccccc3c3c4c(c5c6ccccc6n2c5c31)C(=O)NC4 [K252a], the Met autophosphorylation (MET) is listed as “inhibits Met autophosphorylation”, the Met mediated transformation (NIH3T3 fibroblasts) is listed as “reverses Met mediated transformation” and the Met-driven proliferation [1] is listed as “reduces Met-driven proliferation”. The HGF-mediated scattering (MLP-29 cells) was “prevents HGF-mediated scattering”.

With Cc1[nH]c(/C=C2\C(=O)Nc3ccc(S(=O)(=O)Cc4c(Cl)cccc4Cl)cc32)c(C)c1C(=O)N1CCC[C@@H]1CN1CCCC1 [PHA-665752, (3Z)-5-[(2,6-dichlorobenzyl)sulfonyl]-3-[(3,5-dimethyl-4-{[(2R)-2-(pyrrolidin-1-ylmethyl)pyrrolidin-1-yl]carbonyl}-1H-pyrrol-2-yl)methylene]-1,3-dihydro-2H-indol-2-one] the “Extreme sensitivity (drug concentration)” value (MKN45 [2]) was 100 nM, the “effect on proliferation rate as a function of time” value (Amp− cells [3]) was “unaffected” and the viability at 0.5 µM (SNU-1) was 101 ± 3.2%. The viability at 0.5 µM (MKN45 [4]) was 5.8 ± 0.5%, the viability at 0.5 µM (GTL16) was 12.8 ± 1.2% and the viability at 0.5 µM (SNU-5) was 4 ± 0.2%. The viability at 0.5 µM (AGS) was 99.8 ± 1.9%, the viability at 0.5 µM (N87) was 86 ± 7.4% and the viability at 0.5 µM (KATO II) was 3.2 ± 0.3%. The viability at 0.5 µM (Hs746T) was 38.4 ± 1.2%, the viability at 0.5 µM (MKN7) was 118 ± 21.1% and the viability at 0.5 µM (MKN1) was 87.5 ± 4%. It also gave a viability at 0.5 µM (MKN74) of 89.6 ± 2.6%, a viability at 0.5 µM (TMK-1) of 91.3 ± 2.1% and a viability at 0.5 µM (Hs738T) of 100 ± 12.3%. The viability at 0.5 µM (HSC39) was 92.8 ± 2.1%, the viability at 0.5 µM (MKN28) was 104 ± 4.2% and the viability at 0.5 µM (SNU-16) was 99.9 ± 1.5%. The viability at 0.5 µM (KATO III) was 105 ± 9.5%, the “baseline phosphorylation of ERK1/2, AKT, STAT3, FAK” value [5] was “no effect on baseline phosphorylation” and the “baseline phosphorylation of downstream effectors ERK1/2, AKT, STAT3, FAK” value [6] was “effectively abrogated the baseline phosphorylation”. The “effect on number of viable cells / proliferation” value (Amp− cells [7]) was “resistant; also recorded: no effect”, the “effect on proliferation as a function of time” value (Amp+ cells [8]) was “initial arrest in proliferation, followed by cell death” and the induction of apoptosis (Amp− cells [9]) was “not in Amp− cells”. For the same compound, the induction of apoptosis (Amp+ cells [10]) was “induction of apoptosis; also recorded: demonstrated apoptosis”, the IC50 [11] was greater than 10 µM and the “effect on number of viable cells” value (Amp+ cells [12]) was “dramatic decrease in the number of viable cells; also recorded: dramatic reduction in cell numbers”. For the same compound, the “constitutive MET autophosphorylation” value [13] was “effectively suppressed the constitutive MET autophosphorylation”.

For COc1cc2ncnc(Nc3ccc(F)c(Cl)c3)c2cc1OCCCN1CCOCC1 [gefitinib], the “Extreme sensitivity (drug concentration)” value (NCI-H1650) was 100 nM and the drug sensitivity (NCI-H1975) was “relatively resistant”.
